The target of series [1] is T1, Strep‐TP‐spacer‐RT‐His8 (HBVpol 1‐690aa; TP‐RT) (Hepatitis B virus ar/Japan/S-207/1988, UniProt Q9YZR5).
T1 construct: gene P; residues 1-690 of HBV polymerase (TP, spacer, RT); no polymerase activity detected
T1 sequence (Q9YZR5 1-690): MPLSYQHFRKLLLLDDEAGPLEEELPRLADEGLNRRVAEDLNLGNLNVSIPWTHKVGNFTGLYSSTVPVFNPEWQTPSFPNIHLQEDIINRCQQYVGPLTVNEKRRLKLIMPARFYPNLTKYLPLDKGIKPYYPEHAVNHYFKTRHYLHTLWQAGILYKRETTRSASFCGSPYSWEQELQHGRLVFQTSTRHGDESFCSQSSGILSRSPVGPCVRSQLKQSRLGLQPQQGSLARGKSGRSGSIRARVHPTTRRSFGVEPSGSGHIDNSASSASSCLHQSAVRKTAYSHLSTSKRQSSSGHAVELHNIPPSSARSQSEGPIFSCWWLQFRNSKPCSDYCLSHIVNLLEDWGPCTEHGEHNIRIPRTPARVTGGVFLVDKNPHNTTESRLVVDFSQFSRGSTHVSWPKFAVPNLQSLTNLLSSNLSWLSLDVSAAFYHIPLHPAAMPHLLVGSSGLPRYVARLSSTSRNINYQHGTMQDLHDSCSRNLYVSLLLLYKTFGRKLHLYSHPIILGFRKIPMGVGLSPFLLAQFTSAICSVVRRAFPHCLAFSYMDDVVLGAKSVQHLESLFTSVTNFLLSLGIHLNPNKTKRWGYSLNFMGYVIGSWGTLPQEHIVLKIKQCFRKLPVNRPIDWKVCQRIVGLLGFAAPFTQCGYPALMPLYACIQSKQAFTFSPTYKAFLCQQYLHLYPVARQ
The series can be described thus: surface plasmon resonance. To be noted: binding considered nonspecific by the authors (also binds GFP control); unreliable.

Series [2] addresses T1, Strep‐TP‐spacer‐RT‐His8 (HBVpol 1‐690aa; TP‐RT). Kind of series: plate assay, inhibition of DIG-labelled epsilon RNA binding to immobilised protein, luminescence. To be noted: 5 pmol DIG-epsilon RNA WT, pH 7.5, room temperature, 3 hr; binding considered nonspecific by the authors; unreliable.
In series [3] the target is T2, Strep‐TP‐spacer‐RT‐His8 (HBVpol 1‐690aa; TP‐RT) (Hepatitis B virus ar/Japan/S-207/1988, UniProt Q9YZR5).
T2 construct: gene P; residues 1-690 of HBV polymerase (TP, spacer, RT); no polymerase activity detected
The series is described as above. The conditions noted are these: 5 pmol DIG-epsilon RNA WT, pH 7.5, room temperature, 3 hr.

For series [4], the target named is T2, Strep‐TP‐spacer‐RT‐His8 (HBVpol 1‐690aa; TP‐RT). The series can be described thus: surface plasmon resonance. Format: binding.
In series [5] the target is T3, Strep-TP-spacer-RT-His8 (HBV polymerase TP-spacer-RT), refolded (Hepatitis B virus, UniProt Q9YZR5 1-690).
T3 sequence: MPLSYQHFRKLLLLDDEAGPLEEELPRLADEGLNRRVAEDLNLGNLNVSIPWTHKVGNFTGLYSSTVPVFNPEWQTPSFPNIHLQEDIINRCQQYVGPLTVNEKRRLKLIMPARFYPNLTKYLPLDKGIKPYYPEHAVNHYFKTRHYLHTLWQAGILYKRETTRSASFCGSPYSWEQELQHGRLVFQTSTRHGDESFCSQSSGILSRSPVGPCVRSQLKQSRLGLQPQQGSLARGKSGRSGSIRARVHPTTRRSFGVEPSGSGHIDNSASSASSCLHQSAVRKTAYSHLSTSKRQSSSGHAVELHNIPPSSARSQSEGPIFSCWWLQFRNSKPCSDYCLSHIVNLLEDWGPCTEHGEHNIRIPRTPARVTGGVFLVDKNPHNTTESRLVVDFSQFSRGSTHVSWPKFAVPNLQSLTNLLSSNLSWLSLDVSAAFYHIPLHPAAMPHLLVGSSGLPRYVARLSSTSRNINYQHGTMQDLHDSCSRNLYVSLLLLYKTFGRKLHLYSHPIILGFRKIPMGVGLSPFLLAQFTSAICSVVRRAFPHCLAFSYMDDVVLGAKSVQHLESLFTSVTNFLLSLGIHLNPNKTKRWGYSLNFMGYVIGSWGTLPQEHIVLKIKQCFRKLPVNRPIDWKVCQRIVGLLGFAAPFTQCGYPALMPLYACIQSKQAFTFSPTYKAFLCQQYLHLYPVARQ
Kind of series: streptavidin plate binding assay (anti-DIG-HRP luminescence); refolded protein; 5 pmol RNA; 50 mM Tris-HCl pH 7.5, 150 mM NaCl, 1 mM EDTA, 0.05% NP-40, 1 mg/ml BSA, 1 ug/ml poly(I/C), 0.1% protease inhibitor cocktail, 2 mM DTT; room temperature, 3 h (competition 30 min). The conditions noted are these: protein: recombinant, tags: N-terminal Strep, self-annealed.

The target of series [6] is T4, His6-SUMO-TP (Hepatitis B virus, UniProt Q9YZR5 1-177).
T4 sequence: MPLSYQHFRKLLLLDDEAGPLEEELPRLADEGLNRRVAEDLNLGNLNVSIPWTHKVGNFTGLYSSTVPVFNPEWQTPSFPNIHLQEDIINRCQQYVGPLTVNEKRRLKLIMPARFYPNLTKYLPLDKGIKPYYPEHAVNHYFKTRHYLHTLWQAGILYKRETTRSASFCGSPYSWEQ
Kind of series: nickel plate binding assay (anti-DIG-HRP luminescence); 5 pmol RNA; no specific binding; 50 mM Tris-HCl pH 7.5, 150 mM NaCl, 1 mM EDTA, 0.05% NP-40, 1 mg/ml BSA, 1 ug/ml poly(I/C), 0.1% protease inhibitor cocktail, 2 mM DTT; room temperature, 3 h (competition 30 min). To be noted: protein: recombinant; tags: N-terminal His6-SUMO; hairpin with central bulge and apical loop, self-annealed.

On to `NC(Cc1cc(O)c(O)cc1O)C(=O)O` (racemic) [6‐hydroxy‐DL‐DOPA], for which the KD in series [1] worked out at 0.011 µM. For the same molecule, the IC50 in series [2] is ~ 6.6 µM.

Turning to `CCCCCCCC/C=C\CCCCCCCC(=O)NCCc1ccc(O)c(O)c1` [N‐oleoyldopamine], the IC50 in series [3] was about 0.41 µM. In addition, the dissociation constant Kd in series [4] was determined as 0.072 µM.

B1: epsilon dBdL RNA (central bulge and apical loop deleted) (structured_RNA)
RNA: UCUCAUGUUCAUGUCCUAGCCUCCAAUUGGGUGGCUUUGGGGCAUGGACAUUGAC
As to B1, the binding result in series [5] (hairpin) is “no binding”.

B2: epsilon WT RNA (structured_RNA)
RNA: UCUCAUGUUCAUGUCCUACUGUUCAAGCCUCCAAGCUGUGCCUUGGGUGGCUUUGGGGCAUGGACAUUGA
For the molecule B2, the binding result in series [6] is “no binding”; in series [5] (hairpin with central bulge and apical loop) it was “binds”.

The values are drawn from publication PMC7496097, “Establishment of a system for finding inhibitors of ε RNA binding with the HBV polymerase” (Genes to Cells, 2020).
